Data set [1] deals with hepatic carcinoma 97H cells. Description: MTT antiproliferative assay, 97H cells. The data set is classed as cell-based, human. The settings on record: Homo sapiens, 97H cells, MTT, 48 h. Background: Formazan colour is commonly taken as a measure of viable cells.
Description: (§3) The cell lines, 97H (human liver cancer cell), Pc9 (human non-small cell lung cancer), HELA (human epithelial cervical cancer cell line), SJSA1 (human osteosarcoma cells), LO2 (human normal liver cells), and HLF (human embryonic lung fibroblast), used in this study were purchased from the Guangzhou ginny ou Biotechnology Co. Ltd. (Guangzhou, China). Cell lines were cultivated in Dulbecco’s Modified Eagle Medium (DMEM) containing 10% (v/v) heat-inactivated fetal bovine serum (FBS), 100 units/mL penicillin, and 100 μg/mL streptomycin.
(§4) For the cytotoxicity assay, the cells grown in the logarithmic phase were seeded into 96-well plates (5 × 10^3 cells/well) for 24 h, and then exposed to different concentrations of the test compounds for 48 h. After the attached cells had been incubated with 5 mg/mL MTT (Sigma, St. Louis, MO, USA) for another 4 h, the suspension was discarded and subsequently the dark blue crystals (formazan) were solubilized in dimethyl sulfoxide (DMSO). Then, the absorbance was measured at 570 nm using a multifunction microplate reader (Molecular Devices, Flex Station 3) (Thermo Fisher Scientific, San Jose, CA, USA), and each experiment was performed at least in triplicate.
The test system of data set [2] is SJSA1 (human osteosarcoma cells). Description: MTT antiproliferative assay, SJSA1 cells. It counts as cell-based. As to conditions: SJSA-1, SJSA1 cells, MTT, 48 h, read-out: IC50 SJSA1.
Description: as §3, §4
Data set [3] concerns c-Met phosphorylation. Description: Western blot, phosphorylation of c-Met in 97H cells. It counts as cell-based, human. How it is done: (§1) 97H cells seeded in 60-mm dishes at a density of 5 × 10^5 cells/well were incubated with or without compound 31e at the indicated concentrations for 4 h. After incubation, the cells were washed twice with ice-cold PBS, and then lysed in RIPA lysis buffer (Radio Immunoprecipitation Assay) containing 150 mM NaCl, 50 mM Tris (pH 7.4), 1% (w/v) sodium deoxycholate, 1% (v/v) Triton X-100, 0.1% (w/v) SDS, and 1 mM EDTA (ethylenediaminetetraacetic acid) (Beyotime, Shanghai, China). The lysates were incubated at 0 °C for 30 min, and vortexed every 10 min intermittently, then the total proteins were harvested by centrifuging at 12,500 g for 15 min. The protein concentrations were determined by a BCA (bicinchoninic acid) Protein Assay Kit (Thermo Fisher Scientific, Rockford, IL, USA), and then the protein extracts were reconstituted in loading buffer containing 62 mM Tris-HCl, 2% SDS (sodium dodecyl sulfate), 10% glycerol, and 5% β-mercaptoethanol (Beyotime, Shanghai, China), and boiled at 100 °C for 3 min. An equal amount of the proteins (40 μg) was separated by 8%–12% sodium dodecyl sulphate-polyacrylamide gel electrophoresis (SDS-PAGE) and were transferred to nitrocellulose membranes (Amersham Biosciences, Little Chalfont, Buckinghamshire, UK). After blocking with 5% non-fat dried milk in TBS containing 1% Tween-20 for 90 min at room temperature, the membranes were incubated overnight with specific primary antibodies (Abcam, London, England) at 4 °C. After three washes in TBST, the membranes were incubated with the appropriate HRP-conjugated (Horseradish Peroxidase-conjugated) secondary antibodies at room temperature for 2 h. The blots were developed with enhanced chemiluminescence (Pierce, Rockford, IL, USA) and detected by an LAS4000 imager (GE Healthcare, Waukesha, WI, USA).
(§2) Figure 5 Compound 31e inhibits c-Met phosphorylation and downstream signaling in cancer cell lines. Cells treated with compound 31e for 1 h or 2 h were then lysed and subjected to Western blot analysis.
For orientation: In western blotting, separated proteins are transferred to a membrane and probed.

For data set [4], the system named is Pc9 (human non-small cell lung cancer cells). Description: MTT antiproliferative assay, Pc9 cells. As to conditions: PC-9, Pc9 cells, MTT, 48 h, read-out: IC50 Pc9. It counts as cell-based.
Description: as §3, §4
Data set [5] relates to Akt phosphorylation. Description: Western blot, phosphorylation of Akt in 97H cells. It counts as cell-based, human. How it is done: as §1, §2
In data set [6] the test system is LO2 (human normal liver cells). Description: MTT assay, LO2 normal cells. The data set is classed as cell-based. As to conditions: LO2 normal cells, MTT, 48 h, read-out: IC50 LO2.
Description: as §3, §4
For data set [7], the system named is hepatic carcinoma 97H cells. Description: Anti-cell-migration study. The data set is classed as cell-based, human. The settings on record: 36 h. How it is done:
97H cells were plated in a 6-well culture dish at 5 × 10^4 cells/dish and grown for 24 h, and the non-migrated cells were scraped off the upper surface of the membrane with a 10 μL pipette. The medium was then replaced with 10% serum DMEM medium and treated with compound 31e at the indicated concentrations for another 36 h. After washing with phosphate buffer solution (PBS), the cell images were immediately detected by a Zeiss LSM 570 laser scanning confocal microscope (Carl Zeiss, Jena, Germany).
Figure 4 Effect of 31e on the migration of hepatic carcinoma 97H cells. Hepatic carcinoma 97H cells (50 × 10^4 cells) suspended in free serum Dulbecco’s Modified Eagle Medium (DMEM) containing 31e for 36 h were photographed under a phase contrast microscopy (magnification: 4 × objective). All results were expressed as the mean ± SD of at least three independent experiments.

Data set [8] deals with hepatic carcinoma 97H cells. Description: Cell cycle analysis by flow cytometry (PI staining). It counts as cell-based, human. On the procedure: 97H cells were seeded in 6-well plates (3 × 10^5 cells/well) and incubated in the presence or absence of compound 31e at the indicated concentrations for 24 h. Then, cells were harvested by centrifugation and fixed in 70% ice-cold ethanol overnight. The ethanol was removed the next day, and then the cells were resuspended in the ice-cold PBS and treated with RNAse A (Keygen Biotech, Nanjing, China) at 37 °C for 30 min, followed by incubation with the DNA staining solution propidium iodide (PI) (Keygen Biotech, Nanjing, China) at 4 °C for 30 min. About 10,000 events were detected by flow cytometry (Epics XL, Beckman Coulter, Fullerton, CA, USA) at 488 nm. The data regarding the number of cells in different phases of the cell cycle were analyzed by EXPO32 ADC analysis software (Beckman Coulter, Fullerton, CA, USA).
Figure 3 Effect of 31e on cell cycle progression. (A) 97H cells (3 × 10^5 cells/sample) were treated with increasing concentrations of 31e for 24 h, cells were harvested, fixed with 70% ethanol, and stained with propidium iodide (PI). The cellular DNA content was then determined by flow cytometry analysis. (B) Quantitative analysis of the percentage of cells in each cell cycle phase was analyzed by EXPO32 ADC analysis software.

Data set [9] has as its system Hela (human epithelial cervical cancer cells). Description: MTT antiproliferative assay, Hela cells. The data set is classed as cell-based. The settings on record: Hela cells, MTT, 48 h, read-out: IC50 Hela.
Description: as §3, §4
Data set [10] concerns HLF (human embryonic lung fibroblast cells). Description: MTT assay, HLF normal cells. The data set is classed as cell-based. As to conditions: HLF normal cells, MTT, 48 h, read-out: IC50 HLF.
Description: as §3, §4
Data set [11] has as its target T1, c-Met enzyme (Homo sapiens, UniProt P08581).
T1 construct: purchased Invitrogen
Description: Kinase inhibition assay. It counts as biochemical.
Description: The c-Met enzymes and the Z’-LYTE Kinase Kit were purchased from Invitrogen. The tested compounds were used in concentrations of 0.001 to 10 mM. Briefly, 1 μL of an inhibitor or 5% DMSO, 2 μL of enzyme, and 2 μL of substrate/ATP mix were added to a 384-well low volume plate L and incubated at room temperature for 60 min. Then, 5 μL of ADP-Glo™ Reagent was added, and the mixture was incubated at room temperature for 40 min. Finally, 10 μL of Kinase Detection Reagent was added, and the mixture was incubated at room temperature for 30 min. The plate was measured on a multifunction microplate reader (Molecular Devices, Flex Station 3), and the luminescence was recorded (integration time 0.5–1 s). Curve fitting and data presentations were performed using Graph Pad Prism version 5.0 (GraphPad Inc., La Jolla, CA, USA). Every experiment was repeated at least three times.

The mark [12] stands for this setting: same concentration, 2 h versus 1 h.

Where two headings read alike, the source gives them in different places. Where only a bound is given, the exact number is not on record here.

T1 sequence (P08581 25-1390): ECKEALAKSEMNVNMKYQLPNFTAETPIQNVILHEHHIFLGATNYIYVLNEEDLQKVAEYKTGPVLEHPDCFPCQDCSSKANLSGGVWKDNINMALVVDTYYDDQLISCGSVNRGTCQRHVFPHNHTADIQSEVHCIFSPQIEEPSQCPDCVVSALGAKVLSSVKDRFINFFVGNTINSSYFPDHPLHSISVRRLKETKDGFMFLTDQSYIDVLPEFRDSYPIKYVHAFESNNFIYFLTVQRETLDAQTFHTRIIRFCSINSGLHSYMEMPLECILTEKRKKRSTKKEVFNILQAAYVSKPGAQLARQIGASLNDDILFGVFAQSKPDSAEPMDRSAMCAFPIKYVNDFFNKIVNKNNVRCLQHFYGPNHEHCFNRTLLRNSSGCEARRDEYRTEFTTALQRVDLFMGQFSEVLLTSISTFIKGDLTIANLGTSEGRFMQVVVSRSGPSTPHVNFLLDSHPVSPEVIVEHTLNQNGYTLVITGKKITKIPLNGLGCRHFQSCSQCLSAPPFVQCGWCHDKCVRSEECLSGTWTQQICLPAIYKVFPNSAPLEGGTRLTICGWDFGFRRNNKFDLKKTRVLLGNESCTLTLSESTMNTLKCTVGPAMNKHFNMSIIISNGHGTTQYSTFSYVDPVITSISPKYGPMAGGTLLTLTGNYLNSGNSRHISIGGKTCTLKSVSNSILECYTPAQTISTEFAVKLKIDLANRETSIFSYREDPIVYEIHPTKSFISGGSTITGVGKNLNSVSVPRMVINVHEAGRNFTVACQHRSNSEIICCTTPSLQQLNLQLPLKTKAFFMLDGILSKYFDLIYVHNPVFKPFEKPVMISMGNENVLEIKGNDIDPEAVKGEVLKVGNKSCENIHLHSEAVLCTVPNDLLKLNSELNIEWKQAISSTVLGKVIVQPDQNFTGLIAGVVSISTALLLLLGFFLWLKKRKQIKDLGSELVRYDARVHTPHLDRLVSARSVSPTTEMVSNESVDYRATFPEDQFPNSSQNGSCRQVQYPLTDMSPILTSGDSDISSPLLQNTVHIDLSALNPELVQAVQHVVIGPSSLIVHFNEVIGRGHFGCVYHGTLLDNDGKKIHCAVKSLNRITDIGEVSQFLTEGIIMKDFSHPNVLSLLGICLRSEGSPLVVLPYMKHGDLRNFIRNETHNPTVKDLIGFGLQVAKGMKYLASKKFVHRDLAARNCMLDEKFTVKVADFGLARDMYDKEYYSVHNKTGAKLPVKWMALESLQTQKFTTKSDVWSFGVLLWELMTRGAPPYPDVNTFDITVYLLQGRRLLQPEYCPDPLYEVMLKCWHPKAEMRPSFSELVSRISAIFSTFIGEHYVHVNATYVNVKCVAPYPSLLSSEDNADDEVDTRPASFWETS

As to `CC(c1cccc(-c2ncc(OCC3CCN(C)CC3)cn2)c1)n1cc(-c2cccc(C#N)c2)cnc1=O` (stereo not drawn) [Compound 31e, 5-(3-cyanophenyl)-1-(1-(3-(5-((1-methylpiperidin-4-yl)methoxy)pyrimidin-2-yl)phenyl)ethyl)pyrimidin-2(1H)-one], the melting point (in general, the temperature, or range, at which the solid turns liquid) lay in the range of 98.2 to 99.9 °C. Further, in data set [1] (read-out: IC50 of Against 97H cells), the IC50 (in general, the concentration that gives 50% inhibition) stood at 0.026 µM. In [1] (read-out: IC50 value, 97H cells), the 50% inhibitory concentration (IC50) is 0.026 µM. In addition, the IC50 in data set [2] is more than 50 µM. For the same compound, the “phosphorylation of c-Met” value in data set [3] (100 nM, 1 h) is listed as “completely inhibited”. For the same compound, in data set [3] (10 or 50 nM, 1 h), the “phosphorylation level of c-Met” value was “suppressed in a dose-dependent manner”. Moreover, in data set [3] (setting [12]), the “inhibition of c-Met phosphorylation” value is “more obvious”. Besides, the IC50 in data set [4] stood at 42.9 ± 0.13 µM. The “phosphorylation of Akt” value in data set [5] (100 nM, 1 h) is “completely inhibited”. In addition, in [5] (10 or 50 nM, 1 h), the “phosphorylation level of Akt” value is on record as “suppressed in a dose-dependent manner”. Besides, in [5] (setting [12]), the “inhibition of Akt phosphorylation” value was “more obvious”. Besides, the half-inhibitory concentration (IC50) in [6] was more than 50 µM. Moreover, the inhibition of migration entry in data set [7] (10 nM) is on record as “moderate inhibition of migration”. In addition, the inhibition of migration entry in [7] (50 nM) is “significantly suppressed”. Also, in data set [7] (100 nM), the inhibition of migration result is “completely suppressed”. For the same compound, the “population of cells in the G1 phase” value in [8] (10 nM, 24 h (vehicle DMSO 70.42%)) is recorded as 83.84%. For the same compound, in data set [8] (100 nM, 24 h), the “population of cells in the G1 phase” value came out at 90.88% and the “population of cells in the G2/M phase” value turned out to be 5.78%. The concentration for half-maximal inhibition (IC50) in [9] is more than 50 µM. The IC50 in [10] was more than 50 µM. This compound also gave an IC50 in data set [11] of 0.032 ± 0.06 µM.

These data come from publication PMC6470795 (Molecules, 2019).
